Source: publication PMC4984800, “A first in man, dose-finding study of the mTORC1/mTORC2 inhibitor OSI-027 in patients with advanced solid malignancies” (British Journal of Cancer, 2016)
Where two headings read alike, the source gives them in different places.

Experiment: First-in-human trial: pharmacokinetics in plasma and urine
Format: in vivo
Conditions: for AUC(0-inf) / Cmax / half-life / AUC(0-t): human, plasma, oral, median (range); for half-life: read-out: T1/2 (converted); for AUC(0-t): read-out: AUC24hr
Protocol: Blood and urine samples were collected at prespecified time points for 24 h after initial dose and at days 2–3 (S2) and after multiple doses on days 3–4 (S1) and 22–23 (S3) across dose levels. Predose samples were collected on days 8, 15 and 22. Urine samples were collected during cycle 1.
Descriptive statistics were used to summarise the safety data, including all patients who received at least one dose of OSI-027. All patients who completed the pharmacokinetic sampling were included in the PK analyses, which used descriptive statistics to summarise AUC0–∞, AUC0–t, Cmax, Clast, Tmax, Tlast, %AUC extrapolated, T1/2, clearance (Cl/F) and volume of distribution (Vz/F). Exploratory analysis were planned to correlate pharmacodynamics and pharmacokinetics. Response to treatment was evaluated according to Response Evaluation Criteria in Solid Tumors (RECIST) ([Therasse et al, 2000]).

[1] = 5 mg, Schedule 3, 5 mg, Day 1, N=3
[2] = 5 mg, Schedule 3, 5 mg, Day 22, N=3
[3] = 10 mg, Schedule 1, 10 mg, Day 1, N=6
[4] = 10 mg, Schedule 1, 10 mg, Day 3, N=6
[5] = 10 mg, Schedule 3, 10 mg, Day 1, N=3
[6] = 10 mg, Schedule 3, 10 mg, Day 22, N=3
[7] = 15 mg, Schedule 1, 15 mg, Day 1, N=4
[8] = 15 mg, Schedule 1, 15 mg, Day 3, N=4
[9] = 20 mg, Schedule 1, 20 mg, Day 1, N=4
[10] = 20 mg, Schedule 1, 20 mg, Day 3, N=4
[11] = 20 mg, Schedule 3, 20 mg, Day 1, N=6
[12] = 20 mg, Schedule 3, 20 mg, Day 22, N=5
[13] = 25 mg, Schedule 3, 25 mg, Day 1, N=3
[14] = 25 mg, Schedule 3, 25 mg, Day 22, N=3
[15] = 30 mg, Schedule 1, 30 mg, Day 1, N=3
[16] = 30 mg, Schedule 1, 30 mg, Day 3, N=3
[17] = 35 mg, Schedule 3, 35 mg, Day 1, N=4
[18] = 35 mg, Schedule 3, 35 mg, Day 22, N=4

With `COc1cccc2cc(-c3nc([C@H]4CC[C@H](C(=O)O)CC4)n4ncnc(N)c34)[nH]c12` [OSI-027] the accumulation (after once daily / continuous dosing) was “minimal accumulation”, the AUC(0-inf) [1] was 2140 ng·h/mL and the Cmax [1] was 236 ng/mL. It also gave a half-life [1] of 7.89 h, a Cmax [2] of 266 ng/mL and an AUC(0-t) [2] of 2040 ng·h/mL. For the same molecule, the half-life [2] was 6.85 h, the AUC(0-inf) [3] was 5130 ng·h/mL and the Cmax [3] was 646 ng/mL. For the same molecule, the half-life [3] was 5.98 h, the Cmax [4] was 602 ng/mL and the AUC(0-t) [4] was 4860 ng·h/mL. It also gave a half-life [4] of 7.74 h, an AUC(0-inf) (10 mg, Schedule 2, 10 mg, N=4) of 5530 ng·h/mL and a Cmax (10 mg, Schedule 2, 10 mg, N=4) of 705 ng/mL. For the same molecule, the half-life (10 mg, Schedule 2, 10 mg, N=4) was 12.3 h, the AUC(0-inf) [5] was 4300 ng·h/mL and the Cmax [5] was 547 ng/mL. The half-life [5] was 7.24 h, the Cmax [6] was 457 ng/mL and the AUC(0-t) [6] was 3720 ng·h/mL. It also gave a half-life [6] of 6.54 h, an AUC(0-inf) [7] of 8460 ng·h/mL and a Cmax [7] of 1170 ng/mL. It also gave a half-life [7] of 7.12 h, a Cmax [8] of 1270 ng/mL and an AUC(0-t) [8] of 9210 ng·h/mL. The half-life [8] was 7.69 h, the AUC(0-inf) (15 mg, Schedule 2, 15 mg, N=7) was 25900 ng·h/mL and the Cmax (15 mg, Schedule 2, 15 mg, N=7) was 894 ng/mL. For the same molecule, the half-life (15 mg, Schedule 2, 15 mg, N=7) was 19.3 h, the AUC(0-inf) [9] was 5780 ng·h/mL and the Cmax [9] was 804 ng/mL. The half-life [9] was 5.09 h, the Cmax [10] was 1350 ng/mL and the AUC(0-t) [10] was 5850 ng·h/mL. The half-life [10] was 5.97 h, the AUC(0-inf) (20 mg, Schedule 2, 20 mg, N=3) was 9840 ng·h/mL and the Cmax (20 mg, Schedule 2, 20 mg, N=3) was 1240 ng/mL. The half-life (20 mg, Schedule 2, 20 mg, N=3) was 7.65 h, the AUC(0-inf) [11] was 9460 ng·h/mL and the Cmax [11] was 1300 ng/mL. The half-life [11] was 7.03 h, the Cmax [12] was 1540 ng/mL and the AUC(0-t) [12] was 13700 ng·h/mL. For the same molecule, the half-life [12] was 9.67 h, the AUC(0-inf) [13] was 25100 ng·h/mL and the Cmax [13] was 1640 ng/mL. The half-life [13] was 11.1 h, the Cmax [14] was 1790 ng/mL and the AUC(0-t) [14] was 15200 ng·h/mL. It also gave a half-life [14] of 15 h, an AUC(0-inf) [15] of 45100 ng·h/mL and a Cmax [15] of 3620 ng/mL. The half-life [15] was 11.3 h, the Cmax [16] was 2120 ng/mL and the AUC(0-t) [16] was 37800 ng·h/mL. The half-life [16] was 10 h, the AUC(0-inf) [17] was 20200 ng·h/mL and the Cmax [17] was 1590 ng/mL. It also gave a half-life [17] of 7.24 h, a Cmax [18] of 2300 ng/mL and an AUC(0-t) [18] of 31200 ng·h/mL. It also gave a half-life [18] of 11.1 h and an AUC(0-inf) (40 mg, Schedule 2, 40 mg, N=3) of 28600 ng·h/mL.
